The values below are quoted from earlier work in patent US6806274B1, “Quinazoline derivatives” (AstraZeneca UK Limited, priority 1999, dated 2004).

In this data set the target is EGF RTK (Homo sapiens, UniProt P00533). The settings on record: Bioorganic & Medicinal Chemistry Letters, 1997, 7, 2723-2728.

The structures appear in SMILES notation.

Sequence of EGF RTK (P00533 25-1210): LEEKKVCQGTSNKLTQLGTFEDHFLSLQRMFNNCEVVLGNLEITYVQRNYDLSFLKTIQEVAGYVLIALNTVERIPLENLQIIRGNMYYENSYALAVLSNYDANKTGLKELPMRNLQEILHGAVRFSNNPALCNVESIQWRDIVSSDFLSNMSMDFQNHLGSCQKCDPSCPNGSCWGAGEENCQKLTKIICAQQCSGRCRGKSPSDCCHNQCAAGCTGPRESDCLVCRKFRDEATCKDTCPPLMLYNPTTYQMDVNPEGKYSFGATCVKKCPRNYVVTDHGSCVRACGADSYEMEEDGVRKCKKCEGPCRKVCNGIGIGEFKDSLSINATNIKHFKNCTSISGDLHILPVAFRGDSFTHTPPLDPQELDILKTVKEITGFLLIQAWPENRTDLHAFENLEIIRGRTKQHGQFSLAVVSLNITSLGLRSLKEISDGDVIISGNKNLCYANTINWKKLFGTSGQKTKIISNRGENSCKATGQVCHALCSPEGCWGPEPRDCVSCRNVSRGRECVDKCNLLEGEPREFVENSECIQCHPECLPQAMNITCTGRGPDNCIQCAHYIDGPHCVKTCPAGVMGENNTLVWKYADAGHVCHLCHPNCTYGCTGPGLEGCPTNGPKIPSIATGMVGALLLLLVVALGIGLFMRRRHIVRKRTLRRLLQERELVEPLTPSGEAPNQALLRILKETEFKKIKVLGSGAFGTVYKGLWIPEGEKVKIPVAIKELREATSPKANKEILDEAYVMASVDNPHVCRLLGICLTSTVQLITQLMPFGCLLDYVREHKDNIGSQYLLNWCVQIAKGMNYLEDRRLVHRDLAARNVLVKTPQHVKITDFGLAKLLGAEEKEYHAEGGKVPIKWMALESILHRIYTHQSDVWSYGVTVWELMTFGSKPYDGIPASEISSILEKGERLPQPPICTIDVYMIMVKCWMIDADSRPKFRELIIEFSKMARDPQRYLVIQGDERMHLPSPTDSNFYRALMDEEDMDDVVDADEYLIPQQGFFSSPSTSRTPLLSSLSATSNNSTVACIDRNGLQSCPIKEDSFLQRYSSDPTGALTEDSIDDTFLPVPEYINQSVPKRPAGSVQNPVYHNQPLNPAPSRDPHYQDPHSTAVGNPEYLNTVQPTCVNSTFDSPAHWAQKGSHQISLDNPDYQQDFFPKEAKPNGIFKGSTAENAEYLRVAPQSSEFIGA

Turning to `COc1cc2ncnc(NC(=O)Nc3ccccc3)c2cc1OC` [1-(6,7-dimethoxyquinazolin-4-yl)-3-phenylurea], the “activity as an EGF RTK inhibitor” value is “inactive”.
